# Test results from ChEMBL document CHEMBL1795227, “Methanesulfonamido-cyclohexylamine derivatives of 2,4-diaminopyrimidine as potent ALK inhibitors” (Bioorg Med Chem Lett, 2011).
# Assays:
# [1] = biological target: Protein kinase C eta type (Homo sapiens) (UniProt P24723); assay: Inhibition of PRKCH at 1 uM
# [2] = biological target: Tyrosine-protein kinase ABL1 (Homo sapiens) (UniProt P00519); assay: Inhibition of ABL1 at 1 uM
# [3] = biological target: Tyrosine-protein kinase SYK (Homo sapiens) (UniProt P43405); assay: Inhibition of SYK at 1 uM
# [4] = biological target: T1, ALK tyrosine kinase receptor (Homo sapiens, UniProt Q9UM73); conditions: 1 uM
# Description: Inhibition of ALK at 1 uM
# [5] = biological target: Serine/threonine-protein kinase B-raf (Homo sapiens) (UniProt P15056); assay: Inhibition of BRAF at 1 uM
# [6] = biological target: Serine/threonine-protein kinase PAK 4 (Homo sapiens) (UniProt O96013); assay: Inhibition of PAK4 at 1 uM
# [7] = biological target: Serine/threonine-protein kinase PLK1 (Homo sapiens) (UniProt P53350); assay: Inhibition of PLK1 at 1 uM
# [8] = biological target: Receptor tyrosine-protein kinase erbB-4 (Homo sapiens) (UniProt Q15303); assay: Inhibition of ERBB4 at 1 uM
# Insulin receptor [9] = biological target: T2, Insulin receptor (Homo sapiens, UniProt P06213); assay: Inhibition of INSR at 1 uM
# T2 sequence (P06213 28-758 limits assumed): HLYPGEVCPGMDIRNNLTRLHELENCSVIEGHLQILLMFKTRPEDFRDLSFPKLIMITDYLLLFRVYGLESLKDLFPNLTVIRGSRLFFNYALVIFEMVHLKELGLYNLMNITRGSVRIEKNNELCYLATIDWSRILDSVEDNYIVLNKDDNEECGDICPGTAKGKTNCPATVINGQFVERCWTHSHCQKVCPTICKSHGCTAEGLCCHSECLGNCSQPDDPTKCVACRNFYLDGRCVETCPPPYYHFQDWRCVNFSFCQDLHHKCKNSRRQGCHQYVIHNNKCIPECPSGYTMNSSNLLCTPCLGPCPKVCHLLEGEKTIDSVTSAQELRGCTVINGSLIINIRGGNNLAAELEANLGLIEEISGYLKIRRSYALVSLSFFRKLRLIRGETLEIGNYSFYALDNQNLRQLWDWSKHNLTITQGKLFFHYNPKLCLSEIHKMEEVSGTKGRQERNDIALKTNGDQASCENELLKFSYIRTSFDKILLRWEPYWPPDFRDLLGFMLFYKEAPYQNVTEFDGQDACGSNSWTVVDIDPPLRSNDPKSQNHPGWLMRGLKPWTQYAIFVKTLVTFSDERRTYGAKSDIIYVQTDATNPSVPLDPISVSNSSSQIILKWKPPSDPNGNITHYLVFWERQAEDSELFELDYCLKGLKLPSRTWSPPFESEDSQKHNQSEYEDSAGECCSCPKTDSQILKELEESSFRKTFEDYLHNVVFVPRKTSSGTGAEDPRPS
# T2 sequence (P06213 763-1382 limits assumed): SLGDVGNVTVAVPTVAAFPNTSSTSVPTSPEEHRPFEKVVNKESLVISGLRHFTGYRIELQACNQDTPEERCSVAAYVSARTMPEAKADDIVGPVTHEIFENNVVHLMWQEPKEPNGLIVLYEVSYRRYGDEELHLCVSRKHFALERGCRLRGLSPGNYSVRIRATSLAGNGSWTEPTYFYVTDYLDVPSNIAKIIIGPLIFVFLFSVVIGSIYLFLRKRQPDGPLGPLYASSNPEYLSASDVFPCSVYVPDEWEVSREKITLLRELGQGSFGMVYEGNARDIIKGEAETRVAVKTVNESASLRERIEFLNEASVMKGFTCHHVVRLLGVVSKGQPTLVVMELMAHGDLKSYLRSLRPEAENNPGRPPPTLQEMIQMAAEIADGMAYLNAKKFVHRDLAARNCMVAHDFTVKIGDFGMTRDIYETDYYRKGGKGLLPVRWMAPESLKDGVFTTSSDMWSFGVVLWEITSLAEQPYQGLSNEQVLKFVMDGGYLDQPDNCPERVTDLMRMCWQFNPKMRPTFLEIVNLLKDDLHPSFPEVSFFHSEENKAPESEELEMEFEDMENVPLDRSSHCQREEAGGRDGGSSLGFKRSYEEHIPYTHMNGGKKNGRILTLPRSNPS
# [10] = biological target: Tyrosine-protein kinase ZAP-70 (Homo sapiens) (UniProt P43403); assay: Inhibition of ZAP70 at 1 uM
# Tyrosine-protein kinase ZAP-70 (Homo sapiens), sequence (P43403 whole entry): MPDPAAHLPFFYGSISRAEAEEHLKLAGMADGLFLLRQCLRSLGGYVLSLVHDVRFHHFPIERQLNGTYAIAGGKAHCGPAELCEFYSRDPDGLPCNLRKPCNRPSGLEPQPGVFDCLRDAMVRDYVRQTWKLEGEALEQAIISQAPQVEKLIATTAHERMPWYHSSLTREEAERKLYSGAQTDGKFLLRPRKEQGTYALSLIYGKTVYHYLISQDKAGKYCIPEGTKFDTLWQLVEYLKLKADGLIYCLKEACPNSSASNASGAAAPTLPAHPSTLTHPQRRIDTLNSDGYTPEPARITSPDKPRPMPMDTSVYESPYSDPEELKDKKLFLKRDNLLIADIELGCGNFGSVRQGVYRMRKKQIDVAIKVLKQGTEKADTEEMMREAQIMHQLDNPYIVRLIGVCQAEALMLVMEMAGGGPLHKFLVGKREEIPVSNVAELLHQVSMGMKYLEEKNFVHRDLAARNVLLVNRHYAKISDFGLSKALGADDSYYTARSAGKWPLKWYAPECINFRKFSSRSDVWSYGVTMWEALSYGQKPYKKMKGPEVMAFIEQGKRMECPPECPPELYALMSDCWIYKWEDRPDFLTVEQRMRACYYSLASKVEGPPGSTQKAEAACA
# [11] = biological target: Proto-oncogene tyrosine-protein kinase receptor Ret (Homo sapiens) (UniProt P07949); assay: Inhibition of RET at 1 uM
# [12] = biological target: Aurora kinase B (Homo sapiens) (UniProt Q96GD4); assay: Inhibition of AURKB at 1 uM
# Aurora kinase B (Homo sapiens), sequence (Q96GD4 whole entry): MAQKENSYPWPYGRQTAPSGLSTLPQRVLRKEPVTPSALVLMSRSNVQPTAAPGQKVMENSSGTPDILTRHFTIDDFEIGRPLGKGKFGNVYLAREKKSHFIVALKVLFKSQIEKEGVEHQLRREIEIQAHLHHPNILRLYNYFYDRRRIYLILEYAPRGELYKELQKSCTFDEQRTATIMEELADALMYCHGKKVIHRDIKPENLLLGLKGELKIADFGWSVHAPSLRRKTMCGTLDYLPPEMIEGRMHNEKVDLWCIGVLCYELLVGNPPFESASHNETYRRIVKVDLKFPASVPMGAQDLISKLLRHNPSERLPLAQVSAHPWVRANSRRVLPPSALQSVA
# [13] = biological target: Receptor tyrosine-protein kinase erbB-2 (Homo sapiens) (UniProt P04626); assay: Inhibition of ERBB2 at 1 uM
# Receptor tyrosine-protein kinase erbB-2 (Homo sapiens), sequence (P04626 whole entry): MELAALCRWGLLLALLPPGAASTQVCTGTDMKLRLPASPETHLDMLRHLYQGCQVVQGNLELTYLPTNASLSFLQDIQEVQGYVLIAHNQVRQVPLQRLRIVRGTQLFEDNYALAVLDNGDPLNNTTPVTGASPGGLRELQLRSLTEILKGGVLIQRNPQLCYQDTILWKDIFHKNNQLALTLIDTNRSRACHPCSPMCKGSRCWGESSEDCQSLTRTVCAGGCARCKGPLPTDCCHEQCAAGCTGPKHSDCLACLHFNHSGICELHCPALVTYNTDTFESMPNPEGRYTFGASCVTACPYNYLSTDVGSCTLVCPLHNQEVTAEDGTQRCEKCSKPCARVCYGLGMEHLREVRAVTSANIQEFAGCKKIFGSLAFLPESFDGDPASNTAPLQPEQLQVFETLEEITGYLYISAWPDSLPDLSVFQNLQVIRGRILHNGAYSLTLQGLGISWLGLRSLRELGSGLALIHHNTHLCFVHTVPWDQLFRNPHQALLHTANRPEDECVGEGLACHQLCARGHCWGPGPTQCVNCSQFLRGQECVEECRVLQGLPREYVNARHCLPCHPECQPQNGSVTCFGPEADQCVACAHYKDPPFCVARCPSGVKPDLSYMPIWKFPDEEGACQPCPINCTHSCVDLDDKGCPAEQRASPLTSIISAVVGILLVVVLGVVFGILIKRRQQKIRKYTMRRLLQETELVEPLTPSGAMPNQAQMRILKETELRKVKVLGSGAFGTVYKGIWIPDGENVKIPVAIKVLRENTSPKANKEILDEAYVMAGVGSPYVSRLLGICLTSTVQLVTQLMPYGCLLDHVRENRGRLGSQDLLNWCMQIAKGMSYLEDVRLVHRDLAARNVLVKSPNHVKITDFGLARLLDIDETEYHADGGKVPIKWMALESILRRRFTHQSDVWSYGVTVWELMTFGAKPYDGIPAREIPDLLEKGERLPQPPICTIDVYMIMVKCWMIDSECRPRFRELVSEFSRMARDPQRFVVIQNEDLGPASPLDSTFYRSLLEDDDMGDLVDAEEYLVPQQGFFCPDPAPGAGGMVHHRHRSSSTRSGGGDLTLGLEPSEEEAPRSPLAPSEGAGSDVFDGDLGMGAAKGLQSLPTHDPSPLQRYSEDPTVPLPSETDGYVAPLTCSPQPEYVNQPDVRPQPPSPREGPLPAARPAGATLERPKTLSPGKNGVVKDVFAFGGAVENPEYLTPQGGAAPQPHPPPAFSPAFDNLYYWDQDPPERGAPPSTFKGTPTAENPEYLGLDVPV
# [14] = biological target: Receptor-type tyrosine-protein kinase FLT3 (Homo sapiens) (UniProt P36888); assay: Inhibition of FLT3 at 1 uM
# [15] = biological target: Serine/threonine-protein kinase STK11 (Homo sapiens) (UniProt Q15831); assay: Inhibition of LKB1 at 1 uM
# [16] = biological target: Fibroblast growth factor receptor 1 (Homo sapiens) (UniProt P11362); assay: Inhibition of FGFR1 at 1 uM
# [17] = biological target: High affinity nerve growth factor receptor (Homo sapiens) (UniProt P04629); assay: Inhibition of TRKA at 1 uM
# [18] = biological target: Platelet-derived growth factor receptor beta (Homo sapiens) (UniProt P09619); conditions: 1 uM
# Description: Inhibition of PDGFR beta at 1 uM
# [19] = biological target: Aurora kinase C (Homo sapiens) (UniProt Q9UQB9); assay: Inhibition of AURKC at 1 uM
# [20] = biological target: Fibroblast growth factor receptor 2 (Homo sapiens) (UniProt P21802); assay: Inhibition of FGFR2 at 1 uM
# [21] = biological target: RAC-beta serine/threonine-protein kinase (Homo sapiens) (UniProt P31751); assay: Inhibition of AKT2 at 1 uM
# RAC-beta serine/threonine-protein kinase (Homo sapiens), sequence (P31751 whole entry): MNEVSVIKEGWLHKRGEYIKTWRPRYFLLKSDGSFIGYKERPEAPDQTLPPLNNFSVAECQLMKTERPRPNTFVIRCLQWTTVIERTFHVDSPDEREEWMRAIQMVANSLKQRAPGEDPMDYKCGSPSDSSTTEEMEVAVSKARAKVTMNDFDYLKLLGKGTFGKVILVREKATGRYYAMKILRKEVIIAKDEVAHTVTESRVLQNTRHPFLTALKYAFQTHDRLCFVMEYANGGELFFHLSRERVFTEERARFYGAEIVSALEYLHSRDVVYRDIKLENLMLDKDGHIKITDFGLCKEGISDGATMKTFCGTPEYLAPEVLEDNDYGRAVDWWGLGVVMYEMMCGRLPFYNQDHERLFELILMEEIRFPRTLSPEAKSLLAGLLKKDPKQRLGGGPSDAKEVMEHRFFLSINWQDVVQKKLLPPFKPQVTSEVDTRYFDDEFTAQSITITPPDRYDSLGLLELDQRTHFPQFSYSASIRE
# [22] = biological target: Angiopoietin-1 receptor (Homo sapiens) (UniProt Q02763); assay: Inhibition of Tie2 at 1 uM
# Insulin receptor [23] = biological target: T2, Insulin receptor; assay: Inhibition of IR
# [24] = biological target: Ephrin type-A receptor 3 (Homo sapiens) (UniProt P29320); assay: Inhibition of EPHA3 at 1 uM
# [25] = biological target: T1, ALK tyrosine kinase receptor; assay: Inhibition of ALK
# [26] = biological target: Glycogen synthase kinase-3 alpha (Homo sapiens) (UniProt P49840); assay: Inhibition of GSK3A at 1 uM
# [27] = biological target: Mitogen-activated protein kinase 8 (Homo sapiens) (UniProt P45983); assay: Inhibition of JNK1 at 1 uM
# [28] = biological target: Serine/threonine-protein kinase pim-2 (Homo sapiens) (UniProt Q9P1W9); assay: Inhibition of PIM2 at 1 uM
# [29] = biological target: Macrophage colony-stimulating factor 1 receptor (Homo sapiens) (UniProt P07333); assay: Inhibition of CSF1R at 1 uM
# [30] = biological target: Epidermal growth factor receptor (Homo sapiens) (UniProt P00533); assay: Inhibition of EGFR at 1 uM
# [31] = biological target: Mitogen-activated protein kinase 14 (Homo sapiens) (UniProt Q16539); assay: Inhibition of p38 alpha at 1 uM
# [32] = test system: Mast/stem cell growth factor receptor Kit (Homo sapiens), P10721 [D816V]; conditions: 1 uM
# Mast/stem cell growth factor receptor Kit (Homo sapiens), P10721 [D816V], sequence (P10721 whole entry D816V): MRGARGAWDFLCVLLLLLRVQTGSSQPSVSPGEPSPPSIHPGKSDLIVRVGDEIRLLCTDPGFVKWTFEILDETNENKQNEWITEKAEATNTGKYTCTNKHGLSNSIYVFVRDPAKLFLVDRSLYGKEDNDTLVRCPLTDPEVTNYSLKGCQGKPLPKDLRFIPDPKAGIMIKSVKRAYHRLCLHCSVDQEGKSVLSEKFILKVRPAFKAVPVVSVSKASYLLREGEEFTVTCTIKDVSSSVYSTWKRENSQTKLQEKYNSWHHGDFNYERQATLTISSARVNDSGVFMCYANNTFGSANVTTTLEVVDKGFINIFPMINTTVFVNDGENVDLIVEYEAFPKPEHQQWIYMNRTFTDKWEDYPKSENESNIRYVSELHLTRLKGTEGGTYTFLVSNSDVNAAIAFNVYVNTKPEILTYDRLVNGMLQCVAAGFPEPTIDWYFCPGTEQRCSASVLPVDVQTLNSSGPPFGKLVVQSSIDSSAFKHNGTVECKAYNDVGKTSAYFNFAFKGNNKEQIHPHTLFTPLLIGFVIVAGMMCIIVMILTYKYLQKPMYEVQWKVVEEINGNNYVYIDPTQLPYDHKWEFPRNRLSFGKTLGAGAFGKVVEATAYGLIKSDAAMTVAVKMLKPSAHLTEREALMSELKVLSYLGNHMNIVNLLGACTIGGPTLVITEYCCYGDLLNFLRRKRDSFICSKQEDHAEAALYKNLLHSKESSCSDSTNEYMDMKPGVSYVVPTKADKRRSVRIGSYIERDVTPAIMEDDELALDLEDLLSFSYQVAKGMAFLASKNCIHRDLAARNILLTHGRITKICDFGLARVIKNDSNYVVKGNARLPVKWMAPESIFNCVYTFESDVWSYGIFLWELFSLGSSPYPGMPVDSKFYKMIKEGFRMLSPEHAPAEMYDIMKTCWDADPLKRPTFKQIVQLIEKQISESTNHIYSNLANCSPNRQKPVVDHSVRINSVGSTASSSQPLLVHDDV
# Description: Inhibition of KIT D816V at 1 uM
# [33] = biological target: Mitogen-activated protein kinase 11 (Homo sapiens) (UniProt Q15759); assay: Inhibition of p38 beta at 1 uM
# [34] = biological target: Mitogen-activated protein kinase 9 (Homo sapiens) (UniProt P45984); assay: Inhibition of JNK2 at 1 uM
# [35] = biological target: Proto-oncogene tyrosine-protein kinase Src (Homo sapiens) (UniProt P12931); assay: Inhibition of SRC at 1 uM
# [36] = biological target: Tyrosine-protein kinase BTK (Homo sapiens) (UniProt Q06187); assay: Inhibition of BTK at 1 uM
# [37] = biological target: Vascular endothelial growth factor receptor 2 (Homo sapiens) (UniProt P35968); assay: Inhibition of VEGFR2 at 1 uM
# [38] = biological target: Aurora kinase A (Homo sapiens) (UniProt O14965); assay: Inhibition of AURKA at 1 uM
# [39] = biological target: Activin receptor type-1 (Homo sapiens) (UniProt Q04771); assay: Inhibition of ACVR1 at 1 uM
# [40] = biological target: Serine/threonine-protein kinase pim-1 (Homo sapiens) (UniProt P11309); assay: Inhibition of PIM1 at 1 uM
# [41] = biological target: RAC-alpha serine/threonine-protein kinase (Homo sapiens) (UniProt P31749); assay: Inhibition of AKT1 at 1 uM
# [42] = biological target: Fibroblast growth factor receptor 4 (Homo sapiens) (UniProt P22455); conditions: 1 uM
# Description: Inhibition of FGFR4 at 1 uM
# [43] = biological target: RAC-gamma serine/threonine-protein kinase (Homo sapiens) (UniProt Q9Y243); assay: Inhibition of AKT3 at 1 uM
# [44] = biological target: RAF proto-oncogene serine/threonine-protein kinase (Homo sapiens) (UniProt P04049); assay: Inhibition of RAF1 at 1 uM
# [45] = biological target: Platelet-derived growth factor receptor alpha (Homo sapiens) (UniProt P16234); assay: Inhibition of PDGFRalpha at 1 uM
# [46] = biological target: TGF-beta receptor type-1 (Homo sapiens) (UniProt P36897); assay: Inhibition of TGFBR1 at 1 uM
# [47] = biological target: Ephrin type-A receptor 2 (Homo sapiens) (UniProt P29317); assay: Inhibition of EPHA2 at 1 uM
# [48] = biological target: Tyrosine-protein kinase ITK/TSK (Homo sapiens) (UniProt Q08881); assay: Inhibition of ITK at 1 uM
# [49] = biological target: Cyclin-dependent kinase 2 (Homo sapiens) (UniProt P24941); assay: Inhibition of CDK2 at 1 uM
# [50] = test system: Tyrosine-protein kinase ABL1 (Homo sapiens), P00519 [T315I]; assay: Inhibition of ABL1 T315I at 1 uM
structure (smiles),measurement,setting,value
COCCN1CCc2cc(Nc3ncc(Cl)c(N[C@@H]4CCCC[C@H]4NS(C)(=O)=O)n3)c(OC)cc2CC1,inhibition,[1],< 65%
same,inhibition,[2],< 65%
same,inhibition,[3],< 65%
same,inhibition,[4],97%
same,inhibition,[5],< 65%
same,inhibition,[6],< 65%
same,inhibition,[7],94%
same,inhibition,[8],74%
same,inhibition,Insulin receptor [9],< 65%
same,inhibition,[10],< 65%
same,inhibition,[11],< 65%
same,inhibition,[12],< 65%
same,inhibition,[13],< 65%
same,inhibition,[14],82%
same,inhibition,[15],< 65%
same,inhibition,[16],86%
same,inhibition,[17],< 65%
same,inhibition,[18],< 65%
same,inhibition,[19],< 65%
same,inhibition,[20],< 65%
same,inhibition,[21],< 65%
same,inhibition,[22],< 65%
same,IC50,Insulin receptor [23],1.4 µM
same,inhibition,[24],< 65%
same,IC50,[25],0.006 µM
same,inhibition,[26],< 65%
same,inhibition,[27],< 65%
same,inhibition,[28],< 65%
same,inhibition,[29],< 65%
same,inhibition,[30],< 65%
same,inhibition,[31],< 65%
same,inhibition,[32],97%
same,inhibition,[33],< 65%
same,inhibition,[34],< 65%
same,inhibition,[35],< 65%
same,inhibition,[36],< 65%
same,inhibition,[37],< 65%
same,inhibition,[38],< 65%
same,inhibition,[39],< 65%
same,inhibition,[40],< 65%
same,inhibition,[41],< 65%
same,inhibition,[42],< 65%
same,inhibition,[43],< 65%
same,inhibition,[44],< 65%
same,inhibition,[45],< 65%
same,inhibition,[46],< 65%
same,inhibition,[47],< 65%
same,inhibition,[48],< 65%
same,inhibition,[49],< 65%
same,inhibition,[50],< 65%
COCCN1CCc2cc(Nc3ncc(Cl)c(N[C@@H]4CCCC[C@H]4N(C)S(C)(=O)=O)n3)c(OC)cc2CC1,inhibition,[1],79%
same,inhibition,[2],< 65%
same,inhibition,[3],< 65%
same,inhibition,[4],100%
same,inhibition,[5],< 65%
same,inhibition,[6],< 65%
same,inhibition,[7],96%
same,inhibition,[8],98%
same,inhibition,Insulin receptor [9],70%
same,inhibition,[10],< 65%
same,inhibition,[11],< 65%
same,inhibition,[12],< 65%
same,inhibition,[13],< 65%
same,inhibition,[14],99%
same,inhibition,[15],94%
same,inhibition,[16],100%
same,inhibition,[17],< 65%
same,inhibition,[18],100%
same,inhibition,[19],< 65%
same,inhibition,[20],99%
same,inhibition,[21],< 65%
same,inhibition,[22],< 65%
same,IC50,Insulin receptor [23],0.46 µM
same,inhibition,[24],< 65%
same,IC50,[25],0.003 µM
same,inhibition,[26],< 65%
same,inhibition,[27],97%
same,inhibition,[28],< 65%
same,inhibition,[29],98%
same,inhibition,[30],89%
same,inhibition,[31],< 65%
same,inhibition,[32],100%
same,inhibition,[33],< 65%
same,inhibition,[34],< 65%
same,inhibition,[35],< 65%
same,inhibition,[36],< 65%
same,inhibition,[37],< 65%
same,inhibition,[38],< 65%
same,inhibition,[39],< 65%
same,inhibition,[40],90%
same,inhibition,[41],< 65%
same,inhibition,[42],100%
same,inhibition,[43],< 65%
same,inhibition,[44],< 65%
same,inhibition,[45],< 65%
same,inhibition,[46],< 65%
same,inhibition,[47],< 65%
same,inhibition,[48],< 65%
same,inhibition,[49],< 65%
same,inhibition,[50],< 65%
